Entries after “also recorded” stand apart in the source; their conditions may differ.
Key:
[1] = system: MC3T3 (subclone 14) osteoblast-like cells; experiment: MC3T3 osteoblast-like cell mineralisation (alizarin red); type: cell-based
Method: 2×10^4 MC3T3 (subclone 14) osteoblast-like cells were seeded on a 24-well plate and cultured for 2 days in osteoblast growth media (Alpha-MEM supplemented with 10% FBS, 1% Ab/Am) before induction of differentiation with osteoblast differentiation media (Alpha-MEM, 10% FBS, 1% Ab/Am, 50 μg/ml ascorbic acid, 5 mM β-glycerophosphate) in the presence of 1 μM BI1347 or DMSO, with media changes every 2-3 days.
Another MC3T3 differentiation method was also carried out with MSC2530818 treatment. Briefly, MC3T3 cells were seeded as above and differentiated for 7 days in osteogenic induction media (Alpha-MEM, 10% FBS, 1% Ab/Am, 50 μg/ml ascorbic acid) with DMSO or 100 nM MSC2530818, before switching to osteogenic induction media with 2 mM β-glycerophosphate in the presence of 100 nM MSC2530818 or DMSO.
Cells were fixed in 95% ice-cold methanol and stained with 1% Alizarin Red on day 7, 10 and 14 of culture for BI1347 and on day 14 only for MSC2530818 treated cells to observe effects of compounds on mineralization compared to DMSO control. Alizarin red stain was leached and measured as previously described.

ATDC5 micromass = experiment: Dose response of CDK8 inhibitors on ATDC5 micromass (alizarin red / alcian blue); type: cell-based, mouse; details: all concentrations (10 μM down to 0.1 nM), day 14
Method: (§1) In brief, 2 μl micromasses were seeded in a 96-well plate and cultured as previous in the presence of BI1347 and additional CDK8i compounds namely BRD6989, AS2863619, SEL120-34A, MSC2530818 and CCT251545. Compound concentrations were titrated 10-fold from 10 μM down to 0.1 nM. On day 14 micromasses were fixed, stained and subsequently leached to allow for dose response analysis to be conducted.
as §1, with “seeded on” for “seeded in”, “additional Mediator kinase inhibitor” for “additional CDK8i”

[2] = system: monolayer culture of ATDC5 cells; experiment: Monolayer culture of ATDC5 cells, GAG deposition; type: cell-based, mouse; details: monolayer instead of micromass
ATDC5 micromasses [3] = experiment: Dose response of CDK8i on genes of interest in hypertrophic ATDC5 micromasses; type: cell-based, mouse; details: for gene expression of OA protective genes (TIMP4, MATN3, SMOC2, CNMD) / gene expression of hypertrophic/mineralised matrix marker IBSP: 1 μM, 100 nM or 10 nM, 14 day hypertrophic differentiation, vs DMSO; for dose response in gene expression: efficacy down to: 14 days differentiation to hypertrophy
Method: To confirm that the gene expression profile observed in the day 7 RNAseq dataset was reproducible in hypertrophic cells, we selected genes of interest from the RNAseq dataset and analysed gene expression analysis on hypertrophic ATDC5 cells. 2.7×10^5 ATDC5 cells were cultured in 10 μl micromasses in the presence of BI1347 and MSC2530818 at concentrations 1 μM, 100 nM, 10 nM and DMSO control for 7 days in differentiation media before switching to mineralisation media for 7 days. On day 14 cells were processed for qPCR analysis as previously described.

ATDC5 micromasses [4] = experiment: Phased dosing of CDK8i on ATDC5 micromasses (alcian blue / alizarin red); type: cell-based, mouse; details: 1 μM, phased dosing 2, 4, 6, 9, 11, 14 days, read day 14; all timepoints
Method: To understand the longevity of the CDK8i effect observed with BI1347 and MSC2530818, ATDC5 micromasses were exposed to a phased dosing regimen. This consisted of treating standard 10 μl ATDC5 micromasses with differentiation media containing 1 μM of BI1347 or MSC2530818 for 2 days before switching to control differentiation media for the remaining culture period ending on day 14 of differentiation. This was repeated for 4, 6, 9, 11 and 14 days of treatment. On day 14, cells were fixed and stained with alizarin red or alcian blue as previously described.

Row | Compound | mineralisation by alizarin red stain vs DMSO ([1]; 100 nM, 14 days (AA day 0-7, AA + 2 mM BGP day 7-14)) | mineralisation by alizarin red stain vs DMSO ([1]; 100 nM, 14 days (AA day 0-7, AA + 2 mM BGP day 7-14), listed as MSC) | alcian blue staining (GAG deposition) (ATDC5 micromass) | changes in GAG deposition [2] | gene expression of OA protective genes (TIMP4, MATN3, SMOC2, CNMD) (ATDC5 micromasses [3]) | gene expression of hypertrophic/mineralised matrix marker IBSP (ATDC5 micromasses [3]) | dose response in gene expression: efficacy down to (ATDC5 micromasses [3]) | Glycosaminoglycan (GAG) deposition (leached alcian blue absorbances) vs DMSO (ATDC5 micromasses [4]) | Mineralization (leached alizarin red absorbances) vs DMSO (ATDC5 micromasses [4]) | mineralisation by alizarin red stain vs DMSO ([1]; 1 μM, over 14 days culture)
1 | Cc1n[nH]c2ncc(C(=O)N3CCC[C@H]3c3ccc(Cl)cc3)cc12 [MSC2530818] | mineralisation was ablated | ablation of mineralization | maintained | not seen | dose dependent increase | dose dependent decrease | 10 nM | increase in GAG deposition | decrease in mineralisation | 
2 | CN(C)C(=O)Cn1cc(-c2ccc(-c3cncc4ccccc34)cc2)cn1 [BI1347] |  |  | maintained | not seen | dose dependent increase | dose dependent decrease | 10 nM | increase in GAG deposition | decrease in mineralisation | completely inhibited mineralisation; also recorded: reduced mineralisation
